# Measurements published in paper PMC7773174 (Tetrahedron letters, 2020).
# Key:
# [1] = tested on: Pseudomonas aeruginosa (PAO1); experiment: MIC, broth dilution antimicrobial susceptibility; type: cell-based; details: highest value of three independent trials
# [2] = tested on: red blood cell (RBC), mechanically defibrillated sheep's blood; type: cell-based
# [3] = tested on: MSSA (Staphylococcus aureus SH1000); experiment: MIC, broth dilution antimicrobial susceptibility; type: cell-based; details: S. aureus SH1000; highest value of three independent trials
# [4] = Partition coefficient by extraction with n-octanol and deionized water; type: physicochemical
# [5] = tested on: Enterococcus faecalis (OG1RF); experiment: MIC, broth dilution antimicrobial susceptibility; type: cell-based; details: highest value of three independent trials
# [6] = tested on: CA-MRSA (Staphylococcus aureus USA 300-0114); experiment: MIC, broth dilution antimicrobial susceptibility; type: cell-based; details: S. aureus USA 300-0114; highest value of three independent trials
# [7] = tested on: plasma binding proteins, namely retinoid binding proteins; experiment: Binding to plasma binding proteins; type: in vitro ADME; details: unpublished data
# [8] = tested on: Escherichia coli (MC4100); experiment: MIC, broth dilution antimicrobial susceptibility; type: cell-based; details: highest value of three independent trials
# MRSA = details: cited from earlier work
# Solubility within serum = type: physicochemical; details: preliminary analysis
# [9] = tested on: HA-MRSA (Staphylococcus aureus ATCC 33591); experiment: MIC, broth dilution antimicrobial susceptibility; type: cell-based; details: S. aureus ATCC 33591; highest value of three independent trials
Compound,Minimum Inhibitory Concentration P. aeruginosa [1] [µM],Lysis20 [2] [µM],Minimum Inhibitory Concentration MSSA [3] [µM],P (partition coefficient) ([4]; average over 3 independent trials),"logP ([4]; triplicate, ± standard deviation)",Minimum Inhibitory Concentration E. faecalis [5] [µM],Minimum Inhibitory Concentration CA-MRSA [6] [µM],binding to plasma binding proteins [7],Minimum Inhibitory Concentration E. coli [8] [µM],MIC (MRSA; ref [6]–[7]) [µg/mL],solubility within serum (Solubility within serum),Minimum Inhibitory Concentration HA-MRSA [9] [µM],minimum inhibitory concentration (MIC) (MRSA; ref [5]) [µg/mL]
OCc1ccc2cc(-c3ccc(O)c(C45CC6CC(CC(C6)C4)C5)c3)ccc2c1 [Compound 2],>250,125,2,9.16,0.93 ± 0.20,>250,2,high levels of binding,>250,2,low solubility,2,–
"O=C(O)c1ccc2cc(-c3ccc(O)c(C45CC6CC(CC(C6)C4)C5)c3)ccc2c1 [Compound 1, CD437, reference compound]",–,–,–,–,–,–,–,–,–,–,–,–,1
"benzalkonium chloride [BAC, reference compound]",125,32,2,–,–,125,4,–,32,–,–,4,–
